In patent US12398097B2, “WDR5-MYC inhibitors” (Vanderbilt University, priority 2019, dated 2025):

Target: WDR5 (Homo sapiens, UniProt P61964)
Assay: Competition-based fluorescence polarization anisotropy assay
Settings: binding to WDR5; displacement of FITC-labeled small molecule probe (analogous to Example J2 or HCH-25) or peptide probe FITC-AHx-SEEEIDVVSV; pH 6.0; Ki converted from IC50
Outline: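 Competition fluorescence polarization anisotropy binding to WDR5 using a FITC-labeled peptide probe or a fluorescently labeled small-molecule probe. Buffer: 200 mM phosphate, 300 mM NaCl, 0.5 mM TCEP, 0.1% Chaps, pH 6.0. Displacement data were converted to Ki.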

N#CC1(c2cc(NS(=O)(=O)c3cc(Br)cc4cccnc34)c(O)c(C(=O)O)c2)CCC1 [SN-6, 3-((6-bromoquinoline)-8-sulfonamido)-5-(1-cyanocyclobutyl)-2-hydroxybenzoic acid]
Ki: 40 nM

CNC(=O)c1cc(C2(C#N)CCC2)cc(NS(=O)(=O)c2cc(Br)cc3c2OCC3)c1O [SN-9, 3-((5-bromo-2,3-dihydrobenzofuran)-7-sulfonamido)-5-(1-cyanocyclobutyl)-2-hydroxy-N-methylbenzamide]
Ki: 990 nM

N#CC1(c2cc(NS(=O)(=O)c3cc(Br)cc4c3OCC4)c(O)c(C(=O)O)c2)CCC1 [SN-10, 3-((5-bromo-2,3-dihydrobenzofuran)-7-sulfonamido)-5-(1-cyanocyclobutyl)-2-hydroxybenzoic acid]
Ki: 50 nM

Methyl 4-chloro-2-(N-(5-chloro-2-hydroxy-3-nitrophenyl)sulfamoyl)benzoate [NE4]
Ki: 1810 nM

Methyl 4-chloro-2-(N-(5-chloro-2-hydroxy-3-nitrophenyl)sulfamoyl)benzoate [NE5]
Ki: 460 nM
